# Laboratory results: patent US8034810B2, “Arylsulfonamido-substituted hydroxamic acid derivatives” (Novartis AG, priority 1999, dated 2011)
# Where a name gives a salt, the structure may show the parent alone.
# Biological target: T1, MMP1 (collagenase 1) (Homo sapiens, UniProt P03956)
# T1 construct: made in house; host or cells: mouse C127 cells, vector pBPV-MMT, secreted into culture medium
# T1 sequence (P03956 100-469): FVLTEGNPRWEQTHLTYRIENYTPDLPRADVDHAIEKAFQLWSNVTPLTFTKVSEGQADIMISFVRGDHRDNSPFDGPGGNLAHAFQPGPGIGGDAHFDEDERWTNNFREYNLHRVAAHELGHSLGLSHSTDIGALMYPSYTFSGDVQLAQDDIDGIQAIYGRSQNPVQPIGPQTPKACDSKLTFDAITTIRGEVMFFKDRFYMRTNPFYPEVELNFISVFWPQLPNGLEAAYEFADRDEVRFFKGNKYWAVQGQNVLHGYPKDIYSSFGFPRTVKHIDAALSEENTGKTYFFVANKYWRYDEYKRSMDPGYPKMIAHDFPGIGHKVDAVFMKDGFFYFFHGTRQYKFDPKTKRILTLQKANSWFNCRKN
# Assay: In vitro inhibition of MMP1 (collagenase 1), fluorogenic peptide substrate
# Type: biochemical
# Details: APMA-activated recombinant human collagenase; substrate 10 μM; 37° C.
# Protocol: The inhibitory activities of compounds of formula I on MT1-MMP, MMP1 (collagenase 1) and MMP2 (gelatinase A) can be determined as follows:
# Stock solutions of substrate (MCA-Pro-Leu-Gly-Leu-Dpa-Ala-Arg-NH2, Knight, C. G., Willenbrock, F., Murphy, G., A novel coumarin-labelled peptide for sensitive continuous assays of the matrix metalloproteinases, FEBS lett., 296, 263-266, (1992)), are prepared in 100% DMSO at a concentration 1.0 mM. Stock solutions of inhibitors are prepared in 100% DMSO. The inhibitor is diluted into the assays from a solution in 100% DMSO, and controls substitute an equal volume of DMSO so that the final DMSO concentration from inhibitor and substrate dilutions in all assays is 6.0%. Assays are performed in assay buffer (150 mM NaCl, 10 mM CaCl2, 50 mM Tris-Cl pH7.5, 0.05% Brij-35) containing 6.0% DMSO once the substrate and inhibitor are diluted into it. The substrate concentration used in the assays is 10 μM. The test is carried out at 37° C. The fluorescence changes are monitored using an excitation wavelength of 320 nm and an emission wavelength of […]. The reaction mixture is added in duplicate to appropriate wells of a 96 well microfluor plate. The reaction mixture is preincubated with the inhibitor for 30 min, the reaction is started by the addition of MMP enzyme and the fluorescence intensity is measured for 10 min. A time point that is on a linear part of the curve is chosen to determine the activity. The inhibition results are expressed as the inhibitor concentrations that produced 50% inhibition (IC50) of the activity in the control (non-inhibited) reaction. In this test, the compounds of the formula I and their pharmacologically acceptable salts have an inhibiting concentration IC50 [μmol/litre] of 0.0001 and 0.030, usually of 0.0002 to 0.010, for MMP2 and an inhibiting concentration IC50 [μmol/litre] of 0.0005 and 0.125, usually of 0.001 to 0.05, for MT1-MMP.
# Plasmid: The cDNA for human collagenase is generated by PCR of cDNA derived from RNA isolated from human U937 cells (ATCC# CRL-2367). The primers, used to generate this cDNA, are […] and AAGGCGGCCGCA […], corresponding to nucleotides 58 to 1526 of the reported cDNA sequence, GenBank accession number X05231. The resulting cDNA fragment is subcloned into Not I site of a mammalian expression vector pBPV-MMT (Matthias, P. et al., J. Mol. Biol. 1986, 187(4):557-68).
# C127 cells (ATCC-mouse mammary tumor cell line) are grown in Dulbecco's Modified Essential Medium supplemented with 10% heat inactivated fetal bovine serum and 1× antibiotic-antimycotic solution at 37° C. in a humidified CO2 incubator. Cells seeded at 8×10^5 in 100 mm dishes are transfected using a calcium phosphate precipitation method. 5 h prior to transfection, medium is replaced with fresh medium. Each dish is transfected with 15 μg of the expression vector. Cells are washed twice with PBS 16-18 h after transfection and are incubated in growth medium for an additional 48 h. Clones are then selected by incubation with the Neomycin related antibiotic G418 at a concentration of 400 μg/ml. Media from selected clones are analyzed for collagenase expression by an enzymatic assay. Expression and Purification: 16 liters of culture medium are concentrated to 1.6 liters and the enzyme is isolated by the procedures described by Wilhelm et al. (Proc. Natl. Acad. Sci. (USA). 1987; 84: 6725-29). The final product is further purified on a Superose G-75 (Pharmacia/LKB, Piscataway, N.J.) gel filtration column equilibrated in the assay buffer containing 0.15 M NaCl. Enzyme is pooled and stored in aliquots at −70° C. Recombinant procollagenase (43-45 kDa) is activated with 1 mM APMA (Aminophenylmercuric acetate, ICN Pharmaceuticals) for 2 h at 37° C., and the APMA is removed by extensive dialysis against the assay buffer containing 0.15M NaCl. The activated enzyme (˜36-kDa) is stored frozen at −70° C. until use.
row,IC50 [µM],Compound
1,0.622,"COc1ccc(CN(CC(=O)NO)S(=O)(=O)c2ccc(OCCCCl)cc2)cc1 [Example 68, 2-{[4-(3-chloro-propoxy)-benzenesulfonyl]-(4-methoxy-benzyl)amino}-N-hydroxy-acetamide]"
2,0.069,"C#CCOc1ccc(S(=O)(=O)N(CC(=O)NO)Cc2ccc(OC)cc2)cc1 [Example 75, [(4-methoxy-benzyl)-[4-prop-2-ynyloxy-benzenesulfonyl]-amino]-N-hydroxy-acetamide]"
3,5.85,"C=CCCOc1ccc(S(=O)(=O)N(CC(=O)NO)Cc2ccc(-n3cncn3)cc2)cc1 [Example 79, 2-[(4-but-3-enyloxy-benzenesulfonyl)-(4-[1,2,4]triazol-1-yl-benzyl)-amino]-N-hydroxy-acetamide-hydrochloride salt]"
4,2.61,"C=CCCOc1ccc(S(=O)(=O)N(CC(=O)NO)Cc2ccc(-n3ccnc3)cc2)cc1 [Example 80, 2-[(4-But-3-enyloxy-benzenesulfonyl)-(4-imidazol-1-yl-benzyl)-amino]-N-hydroxy-acetamide-hydrochloride]"
5,4.29,"C=CCCOc1ccc(S(=O)(=O)N(CC(=O)NO)Cc2ccc(N3CCOCC3)cc2)cc1 [Example 81, 2-[(4-But-3-enyloxy-benzenesulfonyl)-(4-morpholin-4-yl-benzyl)-amino]-N-hydroxy-acetamide-hydrochloride]"
6,3.69,"C=CCCOc1ccc(S(=O)(=O)N(CC(=O)NO)Cc2cccc(F)n2)cc1 [Example 83a, 2-([4-But-3-enyloxy-benzenesulfonyl]-(6-fluoro-pyridine-2-yl)methyl-amino)-N-hydroxyacetamide]"
7,5.53,"C=CCCOc1ccc(S(=O)(=O)N(CC(=O)NO)Cc2ccc(N3CCCC3)cc2)cc1 [Example 84a, 2-[(4-But-3-enyloxy-benzenesulfonyl)-(4-(pyrrolidin-1-yl)-benzyl)-amino]-N-hydroxyacetamide-hydrochloride]"

row,Compound,IC50 [µM]
1,"2-[(Cyclopropylmethoxy-benzenesulfonyl)-(4-[1,2,4]triazol-1-yl-benzyl)-amino]-N-hydroxyacetamide-hydrochloride salt [Example 82b]",0.965
2,O=C(CN(Cc1ccc(-n2cncn2)cc1)S(=O)(=O)c1ccc(OCCC2CC2)cc1)NO [Example 82a],4.21
3,O=C(CN(Cc1ccc(-n2cncn2)cc1)S(=O)(=O)c1ccc(OCc2ccoc2)cc1)NO [Example 82c],5.1
